Assay results: patent publication US20230310428A1, “EGFR INHIBITOR AND PREPARATION METHOD AND USE THEREOF” (HONGYUN BIOTECH CO., LTD., priority 2020, published 2023)

Legend:
Assay in all cases: Growth inhibitory activity of compounds on BaF3 cell lines stably transfected with kinase (MTS, 48 h)
Type in all cases: cell-based
[1] = target: T1, various mutants of kinase EGFR (BaF3 cell lines stably transfected with kinase) (Homo sapiens, UniProt P00533, T790M/C797S, form not given); details: BaF3 cell line stably transfected with EGFR Δ19Del/T790M/C797S, read-out: Δ19Del/T790M/ C797S growth inhibitory activity IC50
T1 construct: other: BaF3 cells stably transfected with EGFR Δ19Del/T790M/C797S; MTS, 48; other: BaF3 cell line stably transfected with EGFR Δ19Del/T790M/C7
T1 sequence (P00533 with tags, fused parts or gaps DEL746-750/T790M/C797S, form open): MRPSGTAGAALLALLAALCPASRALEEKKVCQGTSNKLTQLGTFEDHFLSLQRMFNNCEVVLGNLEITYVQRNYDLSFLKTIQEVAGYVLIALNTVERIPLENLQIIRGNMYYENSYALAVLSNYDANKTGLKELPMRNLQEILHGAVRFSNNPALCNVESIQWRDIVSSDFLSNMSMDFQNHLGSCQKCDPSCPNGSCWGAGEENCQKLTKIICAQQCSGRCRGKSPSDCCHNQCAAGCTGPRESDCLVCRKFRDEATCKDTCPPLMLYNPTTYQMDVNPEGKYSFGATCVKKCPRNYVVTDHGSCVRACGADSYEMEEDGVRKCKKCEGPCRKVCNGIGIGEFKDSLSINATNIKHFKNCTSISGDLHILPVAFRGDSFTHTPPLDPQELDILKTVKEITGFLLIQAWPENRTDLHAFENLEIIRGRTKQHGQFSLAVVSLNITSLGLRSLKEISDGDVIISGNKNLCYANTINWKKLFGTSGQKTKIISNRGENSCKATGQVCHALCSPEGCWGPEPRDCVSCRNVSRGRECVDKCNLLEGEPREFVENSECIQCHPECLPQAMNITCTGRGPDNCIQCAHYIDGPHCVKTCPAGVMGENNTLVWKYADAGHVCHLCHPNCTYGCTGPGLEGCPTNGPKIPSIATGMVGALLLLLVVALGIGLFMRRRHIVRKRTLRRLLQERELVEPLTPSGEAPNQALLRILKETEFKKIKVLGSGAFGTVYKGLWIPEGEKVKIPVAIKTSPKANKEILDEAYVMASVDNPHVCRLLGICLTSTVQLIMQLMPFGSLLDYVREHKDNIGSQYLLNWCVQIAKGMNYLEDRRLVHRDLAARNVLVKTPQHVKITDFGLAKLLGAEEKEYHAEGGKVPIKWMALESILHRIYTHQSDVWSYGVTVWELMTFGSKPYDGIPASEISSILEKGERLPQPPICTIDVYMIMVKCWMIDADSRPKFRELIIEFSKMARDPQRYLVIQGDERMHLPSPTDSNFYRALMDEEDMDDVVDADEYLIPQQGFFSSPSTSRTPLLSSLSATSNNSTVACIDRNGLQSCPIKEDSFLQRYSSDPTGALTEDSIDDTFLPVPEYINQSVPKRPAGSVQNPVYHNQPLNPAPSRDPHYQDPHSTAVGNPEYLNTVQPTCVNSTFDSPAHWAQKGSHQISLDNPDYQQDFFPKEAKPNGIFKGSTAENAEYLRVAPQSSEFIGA
Outline: (§1)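 Cells in DMEM or RPMI 1640 with 10% FBS were exposed to compound at 8 concentrations (top 10 µM, 1/3 steps, 0.1% DMSO) for 48 h at 37 °C, 5% CO2. MTS/PES was then added for 1-4 h and OD490 read; IC50 was fitted from growth inhibition versus 0.1% DMSO control.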

[2] = target: T2, various mutants of kinase EGFR (BaF3 cell lines stably transfected with kinase) (Homo sapiens, UniProt P00533, C797S/L858R/T790M); details: BaF3 cell line stably transfected with EGFR L858R/T790M/C797S, read-out: L858R/T790M/ C797S growth inhibitory activity IC50
T2 construct: expressed in transfected cells; host or cells: BaF3
T2 sequence (P00533 25-1210 T790M/C797S/L858R): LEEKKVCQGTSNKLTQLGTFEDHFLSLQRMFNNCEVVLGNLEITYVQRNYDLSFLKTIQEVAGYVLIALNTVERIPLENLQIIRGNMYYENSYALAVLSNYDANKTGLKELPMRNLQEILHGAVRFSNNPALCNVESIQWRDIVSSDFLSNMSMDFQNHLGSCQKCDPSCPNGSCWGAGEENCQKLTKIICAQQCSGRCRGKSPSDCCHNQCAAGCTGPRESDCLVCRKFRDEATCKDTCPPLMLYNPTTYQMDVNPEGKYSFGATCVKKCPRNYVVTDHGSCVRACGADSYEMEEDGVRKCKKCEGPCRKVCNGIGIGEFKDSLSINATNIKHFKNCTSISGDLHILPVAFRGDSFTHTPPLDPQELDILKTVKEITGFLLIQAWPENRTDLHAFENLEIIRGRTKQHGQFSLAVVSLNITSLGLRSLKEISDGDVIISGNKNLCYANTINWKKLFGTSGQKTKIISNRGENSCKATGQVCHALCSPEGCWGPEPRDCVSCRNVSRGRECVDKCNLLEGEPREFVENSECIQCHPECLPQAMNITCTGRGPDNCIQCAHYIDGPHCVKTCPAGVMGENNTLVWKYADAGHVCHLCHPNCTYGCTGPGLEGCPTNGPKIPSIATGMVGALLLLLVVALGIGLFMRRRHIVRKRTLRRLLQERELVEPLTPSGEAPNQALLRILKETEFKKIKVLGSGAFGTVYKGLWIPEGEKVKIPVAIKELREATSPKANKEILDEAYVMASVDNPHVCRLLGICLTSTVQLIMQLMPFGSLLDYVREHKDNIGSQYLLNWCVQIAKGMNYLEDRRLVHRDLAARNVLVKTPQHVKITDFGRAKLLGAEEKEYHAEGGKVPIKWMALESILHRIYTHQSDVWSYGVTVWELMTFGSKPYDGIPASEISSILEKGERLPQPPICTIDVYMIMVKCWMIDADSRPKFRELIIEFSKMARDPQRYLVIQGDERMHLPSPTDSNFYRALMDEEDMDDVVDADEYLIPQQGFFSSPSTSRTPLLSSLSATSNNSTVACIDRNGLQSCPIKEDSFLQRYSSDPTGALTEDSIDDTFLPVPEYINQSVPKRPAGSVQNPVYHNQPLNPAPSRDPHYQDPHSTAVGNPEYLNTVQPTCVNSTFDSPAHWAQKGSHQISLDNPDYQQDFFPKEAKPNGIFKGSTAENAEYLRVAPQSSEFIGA
Outline: as §1

[3] = target: T3, various mutants of kinase EGFR (BaF3 cell lines stably transfected with kinase) (Homo sapiens, UniProt P00533); details: BaF3 cell line stably transfected with EGFR Δ19Del, read-out: Δ19Del growth inhibitory activity IC50
T3 construct: other: BaF3 cells stably transfected with EGFR Δ19Del; MTS, 48 h; other: BaF3 cell line stably transfected with EGFR Δ19Del
T3 sequence (P00533 with tags, fused parts or gaps DEL746-750): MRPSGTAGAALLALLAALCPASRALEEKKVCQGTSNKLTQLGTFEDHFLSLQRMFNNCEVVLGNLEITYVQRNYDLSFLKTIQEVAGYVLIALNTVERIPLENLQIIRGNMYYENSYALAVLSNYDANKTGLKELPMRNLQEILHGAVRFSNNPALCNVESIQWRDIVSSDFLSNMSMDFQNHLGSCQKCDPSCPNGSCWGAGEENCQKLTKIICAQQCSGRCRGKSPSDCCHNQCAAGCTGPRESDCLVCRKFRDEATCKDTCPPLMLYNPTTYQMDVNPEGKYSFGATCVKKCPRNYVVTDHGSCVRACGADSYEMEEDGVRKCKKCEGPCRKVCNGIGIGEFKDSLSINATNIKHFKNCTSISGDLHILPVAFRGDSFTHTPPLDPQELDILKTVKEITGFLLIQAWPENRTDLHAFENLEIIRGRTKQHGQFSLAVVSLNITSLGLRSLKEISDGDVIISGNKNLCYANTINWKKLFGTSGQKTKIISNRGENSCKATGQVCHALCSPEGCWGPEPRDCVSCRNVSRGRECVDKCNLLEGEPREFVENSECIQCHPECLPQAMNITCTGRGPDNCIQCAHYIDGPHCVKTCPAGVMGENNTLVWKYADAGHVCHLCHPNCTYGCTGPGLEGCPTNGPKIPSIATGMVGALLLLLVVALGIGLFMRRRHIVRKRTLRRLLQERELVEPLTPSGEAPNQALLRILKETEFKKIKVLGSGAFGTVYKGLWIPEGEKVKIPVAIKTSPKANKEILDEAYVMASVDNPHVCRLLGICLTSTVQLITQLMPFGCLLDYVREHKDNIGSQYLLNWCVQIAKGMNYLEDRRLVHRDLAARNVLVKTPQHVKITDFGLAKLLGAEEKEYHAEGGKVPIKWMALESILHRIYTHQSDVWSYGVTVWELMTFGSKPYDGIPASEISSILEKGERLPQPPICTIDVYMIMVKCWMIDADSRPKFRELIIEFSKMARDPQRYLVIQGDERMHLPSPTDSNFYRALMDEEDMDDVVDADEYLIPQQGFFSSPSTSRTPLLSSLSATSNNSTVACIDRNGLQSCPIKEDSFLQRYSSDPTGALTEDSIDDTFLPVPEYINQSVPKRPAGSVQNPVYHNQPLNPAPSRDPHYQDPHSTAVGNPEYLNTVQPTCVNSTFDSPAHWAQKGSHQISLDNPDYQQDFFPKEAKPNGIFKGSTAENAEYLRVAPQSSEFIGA
Outline: as §1

[4] = target: T4, various mutants of kinase EGFR (BaF3 cell lines stably transfected with kinase) (Homo sapiens, UniProt P00533, L858R/T790M); details: BaF3 cell line stably transfected with EGFR L858R/T790M, read-out: L858R/ T790M growth inhibitory activity IC50
T4 construct: expressed in transfected cells; host or cells: BaF3
T4 sequence (P00533 25-1210 T790M/L858R): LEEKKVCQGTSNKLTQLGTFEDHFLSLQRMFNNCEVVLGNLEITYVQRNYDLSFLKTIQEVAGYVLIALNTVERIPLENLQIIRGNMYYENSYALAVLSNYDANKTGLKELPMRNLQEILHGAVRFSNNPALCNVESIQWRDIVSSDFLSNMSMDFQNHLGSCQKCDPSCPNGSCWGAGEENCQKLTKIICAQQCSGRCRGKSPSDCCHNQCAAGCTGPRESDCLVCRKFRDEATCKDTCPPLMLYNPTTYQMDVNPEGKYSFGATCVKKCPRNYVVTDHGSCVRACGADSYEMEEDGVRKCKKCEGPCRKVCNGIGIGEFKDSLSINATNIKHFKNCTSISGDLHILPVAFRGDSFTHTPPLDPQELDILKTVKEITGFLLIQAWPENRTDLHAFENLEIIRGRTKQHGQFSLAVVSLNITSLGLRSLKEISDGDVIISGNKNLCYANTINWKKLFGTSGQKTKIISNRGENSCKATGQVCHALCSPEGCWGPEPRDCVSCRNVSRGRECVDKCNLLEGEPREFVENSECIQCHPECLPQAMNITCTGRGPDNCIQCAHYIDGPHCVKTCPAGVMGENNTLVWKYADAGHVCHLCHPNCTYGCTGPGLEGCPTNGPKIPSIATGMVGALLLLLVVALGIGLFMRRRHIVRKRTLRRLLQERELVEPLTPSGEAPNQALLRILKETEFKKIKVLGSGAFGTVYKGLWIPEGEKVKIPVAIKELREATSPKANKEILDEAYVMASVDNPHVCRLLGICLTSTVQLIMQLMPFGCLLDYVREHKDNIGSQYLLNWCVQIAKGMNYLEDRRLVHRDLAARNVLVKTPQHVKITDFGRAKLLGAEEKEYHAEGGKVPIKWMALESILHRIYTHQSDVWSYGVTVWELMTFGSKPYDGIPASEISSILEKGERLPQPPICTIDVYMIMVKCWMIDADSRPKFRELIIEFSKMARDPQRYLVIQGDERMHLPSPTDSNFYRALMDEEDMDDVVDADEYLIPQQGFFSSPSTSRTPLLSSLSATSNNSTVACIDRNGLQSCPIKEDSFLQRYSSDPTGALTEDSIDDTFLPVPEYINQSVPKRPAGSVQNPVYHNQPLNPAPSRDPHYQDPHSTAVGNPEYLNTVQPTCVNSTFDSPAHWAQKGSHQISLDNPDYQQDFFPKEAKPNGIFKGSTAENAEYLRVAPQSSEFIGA
Outline: as §1

[5] = target: T5, various mutants of kinase EGFR (BaF3 cell lines stably transfected with kinase) (Homo sapiens, UniProt P00533, T790M, form not given); details: BaF3 cell line stably transfected with EGFR Δ19Del/T790M, read-out: Δ19Del/ T790M growth inhibitory activity IC50
T5 construct: other: BaF3 cells stably transfected with EGFR Δ19Del/T790M; MTS, 48 h; other: BaF3 cell line stably transfected with EGFR Δ19Del/T790M; MTS, 48
Outline: as §1

[6] = target: T6, various mutants of kinase EGFR (BaF3 cell lines stably transfected with kinase) (Homo sapiens, UniProt P00533, L858R); details: BaF3 cell line stably transfected with EGFR L858R, read-out: L858R growth inhibitory activity IC50
T6 construct: expressed in transfected cells; host or cells: BaF3
Outline: as §1

Row | Structure (SMILES) | IC50 [1] [nM] | IC50 [2] [nM] | IC50 [3] [nM] | IC50 [4] [nM] | IC50 [5] [nM] | IC50 [6] [nM]
1 | CN(c1c(Nc2nc(Nc3cccc(N4CCC(N5CCCC5)CC4)c3)ncc2Br)ccc2nccnc12)S(C)(=O)=O [Compound I-381] | 50 to 500 | ≤ 50 | 50 to 500 | ≤ 50 | ≤ 50 | 50 to 500
2 | COc1ccc(N2CCC(N3CCCC3)CC2)cc1Nc1ncc(Br)c(Nc2ccc3nccnc3c2N(C)S(C)(=O)=O)n1 [Compound I-382] | 50 to 500 | ≤ 50 | 50 to 500 | ≤ 50 | 50 to 500 | 50 to 500
3 | CCn1ccc(Nc2ncc(Br)c(Nc3ccc4nccnc4c3N(C)S(C)(=O)=O)n2)n1 [Compound I-383] | 50 to 500 | ≤ 50 | 50 to 500 | 50 to 500 | 50 to 500 | 50 to 500
4 | CC(C)n1ccc(Nc2ncc(Br)c(Nc3ccc4nccnc4c3N(C)S(C)(=O)=O)n2)n1 [Compound I-384] | 50 to 500 | 50 to 500 | 500 to 2500 | 50 to 500 | 50 to 500 | 500 to 2500
5 | Cc1cc(Nc2ncc(Br)c(Nc3ccc4nccnc4c3N(C)S(C)(=O)=O)n2)nn1C [Compound I-385] | 50 to 500 | ≤ 50 | 500 to 2500 | 500 to 2500 | 500 to 2500 | 500 to 2500
6 | CCn1cc(Nc2ncc(Br)c(Nc3ccc4nccnc4c3N(C)S(C)(=O)=O)n2)c(C)n1 [Compound I-387] | 50 to 500 | 50 to 500 | 500 to 2500 | 50 to 500 | 500 to 2500 | 500 to 2500
7 | CCc1cc(Nc2ncc(Br)c(Nc3ccc4nccnc4c3N(C)S(C)(=O)=O)n2)c(OC)cc1F [Compound I-389] | 500 to 2500 | 50 to 500 | 500 to 2500 | 500 to 2500 | 500 to 2500 | 500 to 2500
8 | CCc1cc(Nc2ncc(Br)c(Nc3ccc4nccnc4c3N(C)S(C)(=O)=O)n2)c(OC)cc1NCCO [Compound I-390] | 50 to 500 | ≤ 50 | 500 to 2500 | 50 to 500 | 50 to 500 | 50 to 500
9 | CCc1cc(Nc2ncc(Br)c(Nc3ccc4nccnc4c3N(C)S(C)(=O)=O)n2)c(OC)cc1N1CCN(C2CN(C)C2)CC1 [Compound I-398] | ≤ 50 | ≤ 50 | ≤ 50 | ≤ 50 | ≤ 50 | ≤ 50
10 | CCc1cc(Nc2ncc(Br)c(Nc3ccc4nccnc4c3N(C)S(C)(=O)=O)n2)c(OC)cc1N1CCC2(CC1)CC(N(C)C)C2 [Compound I-399] | ≤ 50 | ≤ 50 | 50 to 500 | 50 to 500 | 50 to 500 | 50 to 500
11 | COc1cc(N2CCC(N3CCN(C)CC3)CC2)ccc1Nc1ncc(Br)c(Nc2ccc3nccnc3c2NS(C)(=O)=O)n1 [Compound I-401] | 50 to 500 | 50 to 500 | 50 to 500 | ≤ 50 | 50 to 500 | 50 to 500
12 | COc1cc(N2CCC(N3CCN(C)CC3)CC2)c(C)cc1Nc1ncc(Br)c(Nc2ccc3nccnc3c2NS(C)(=O)=O)n1 [Compound I-402] | ≤ 50 | ≤ 50 | ≤ 50 | ≤ 50 | ≤ 50 | 50 to 500
13 | CCc1cc(Nc2ncc(Br)c(Nc3ccc4nccnc4c3NS(C)(=O)=O)n2)c(OC)cc1N1CCC(N2CCN(C)CC2)CC1 [Compound I-403] | ≤ 50 | ≤ 50 | ≤ 50 | ≤ 50 | ≤ 50 | ≤ 50
14 | CCc1cc(Nc2ncc(Br)c(Nc3ccc4nccnc4c3NS(C)(=O)=O)n2)c(OC)nc1N1CCC(N2CCN(C)CC2)CC1 [Compound I-404] | ≤ 50 | ≤ 50 | 50 to 500 | ≤ 50 | ≤ 50 | ≤ 50
15 | CCc1cc(Nc2ncc(Br)c(Nc3ccc4nccnc4c3NS(C)(=O)=O)n2)c(OC(F)(F)F)cc1N1CCC(N2CCN(C)CC2)CC1 [Compound I-405] | 50 to 500 | 50 to 500 | 50 to 500 | 50 to 500 | ≤ 50 | 50 to 500
16 | COc1cc(N2CCC(N3CCN(C)CC3)CC2)c(C(C)C)cc1Nc1ncc(Br)c(Nc2ccc3nccnc3c2NS(C)(=O)=O)n1 [Compound I-406] | 50 to 500 | 50 to 500 | 50 to 500 | 50 to 500 | 50 to 500 | 50 to 500
17 | COc1cc(N2CCC(N3CCN(C)CC3)CC2)c(C2CC2)cc1Nc1ncc(Br)c(Nc2ccc3nccnc3c2NS(C)(=O)=O)n1 [Compound I-407] | ≤ 50 | ≤ 50 | ≤ 50 | ≤ 50 | ≤ 50 | ≤ 50
18 | COc1cc(N2CCC(N3CCN(C)CC3)CC2)c(CC2CC2)cc1Nc1ncc(Br)c(Nc2ccc3nccnc3c2NS(C)(=O)=O)n1 [Compound I-408] | ≤ 50 | ≤ 50 | 50 to 500 | ≤ 50 | ≤ 50 | ≤ 50
19 | CCc1cc(Nc2ncc(Br)c(Nc3ccc4nccnc4c3NS(C)(=O)=O)n2)ccc1N1CCC(N2CCN(C)CC2)CC1 [Compound I-409] | ≤ 50 | ≤ 50 | ≤ 50 | ≤ 50 | ≤ 50 | ≤ 50

Other lines, results leading:

Row | IC50 [1] [nM] | IC50 [2] [nM] | IC50 [3] [nM] | IC50 [4] [nM] | IC50 [5] [nM] | IC50 [6] [nM] | Structure (SMILES)
20 | ≤ 50 | ≤ 50 | 50 to 500 | ≤ 50 | 50 to 500 | 50 to 500 | COc1ccc(N2CCC(O)CC2)cc1Nc1ncc(Br)c(Nc2ccc3nccnc3c2N(C)S(=O)(=O)C(C)C)n1 [Compound I-376]
21 | ≤ 50 | ≤ 50 | ≤ 50 | ≤ 50 | ≤ 50 | ≤ 50 | CCN(c1c(Nc2nc(Nc3cc(N4CCC(O)CC4)ccc3OC)ncc2Cl)ccc2nccnc12)S(C)(=O)=O [Compound I-377]
22 | ≤ 50 | ≤ 50 | 50 to 500 | ≤ 50 | ≤ 50 | 50 to 500 | CCN(c1c(Nc2nc(Nc3cc(N4CCC(O)CC4)ccc3OC)ncc2Br)ccc2nccnc12)S(C)(=O)=O [Compound I-378]
23 | ≤ 50 | ≤ 50 | ≤ 50 | ≤ 50 | ≤ 50 | ≤ 50 | COc1ccc(N2CCC(O)CC2)cc1Nc1ncc(Cl)c(Nc2ccc3nccnc3c2N(C2CC2)S(C)(=O)=O)n1 [Compound I-379]
24 | ≤ 50 | ≤ 50 | ≤ 50 | ≤ 50 | ≤ 50 | ≤ 50 | COc1ccc(N2CCC(O)CC2)cc1Nc1ncc(Br)c(Nc2ccc3nccnc3c2N(C2CC2)S(C)(=O)=O)n1 [Compound I-380]
25 | ≤ 50 | 50 to 500 | 50 to 500 | 50 to 500 | 50 to 500 | 50 to 500 | CCn1cc(Nc2ncc(Br)c(Nc3ccc4nccnc4c3N(C)S(C)(=O)=O)n2)cn1 [Compound I-386]
26 | ≤ 50 | ≤ 50 | 50 to 500 | ≤ 50 | 50 to 500 | 50 to 500 | CC(C)n1cc(Nc2ncc(Br)c(Nc3ccc4nccnc4c3N(C)S(C)(=O)=O)n2)cn1 [Compound I-388]
27 | ≤ 50 | ≤ 50 | 50 to 500 | 50 to 500 | 50 to 500 | 50 to 500 | CCc1cc(Nc2ncc(Br)c(Nc3ccc4nccnc4c3N(C)S(C)(=O)=O)n2)c(OC)cc1NCCN(C)C [Compound I-391]
28 | ≤ 50 | ≤ 50 | 50 to 500 | 50 to 500 | 50 to 500 | 50 to 500 | CCc1cc(Nc2ncc(Br)c(Nc3ccc4nccnc4c3N(C)S(C)(=O)=O)n2)c(OC)cc1N(C)CCN(C)C [Compound I-392]
29 | ≤ 50 | ≤ 50 | 50 to 500 | 50 to 500 | 50 to 500 | 50 to 500 | CCc1cc(Nc2ncc(Br)c(Nc3ccc4nccnc4c3N(C)S(C)(=O)=O)n2)c(OC)cc1N1CCC(N2CCN(C)CC2)CC1 [Compound I-396]
